The source of these data is patent publication US20090111804A1, “ARYLINDENOPYRIMIDINES AND THEIR USE AS ADENOSINE A2a” (priority 2007, published 2009).

For assay [1], the target named is T1, A1 (Homo sapiens, UniProt P30542).
T1 sequence (P30542 1-326): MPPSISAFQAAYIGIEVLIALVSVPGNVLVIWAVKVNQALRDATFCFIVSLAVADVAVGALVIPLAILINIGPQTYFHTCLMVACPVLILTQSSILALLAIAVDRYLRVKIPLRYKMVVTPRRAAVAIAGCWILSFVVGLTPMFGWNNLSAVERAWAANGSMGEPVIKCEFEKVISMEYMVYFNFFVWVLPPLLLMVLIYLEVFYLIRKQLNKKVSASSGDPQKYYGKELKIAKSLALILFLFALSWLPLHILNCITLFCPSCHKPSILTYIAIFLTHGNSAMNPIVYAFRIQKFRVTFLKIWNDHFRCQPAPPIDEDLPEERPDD
Description: A1 cell-based functional assay.

Assay [2] addresses T2, human adenosine A2a receptors (Homo sapiens, UniProt P29274).
T2 construct: expressed in transfected cells; host or cells: CHO-K1
Description: Adenosine A2a receptor cell-based functional assay (cAMP-inducible beta-galactosidase reporter). To be noted: CHO-K1 cells overexpressing human adenosine A2a receptors; antagonist assay with 50 nM NECA. On the procedure:
Nonspecific binding was determined by […] NECA. […] Data was analyzed in Microsoft Excel and GraphPad Prism programs. […] For agonist assay, adenosine A2a receptor agonist NECA was subsequently added and cell incubated at 37° C., 5% CO2 for 5 hrs before stopping reaction. In the case of antagonist assay, cells were incubated with antagonists for 5 minutes at R.T. followed by addition of 50 nM NECA. Cells were then incubated at 37° C., 5% CO2 for 5 hrs before stopping experiments by washing cells with PBS twice. […] Color was allowed to develop at 37° C. for 1 h or until reasonable signal appeared. […] Data was analyzed in Microsoft Excel and GraphPad Prism programs.

In general, pKi refers to the Ki on a negative log10 scale, so that one unit is a factor of ten. Higher therefore signals a small Ki.

pKi: −log10 of the molar value.

T2 sequence (P29274 whole entry): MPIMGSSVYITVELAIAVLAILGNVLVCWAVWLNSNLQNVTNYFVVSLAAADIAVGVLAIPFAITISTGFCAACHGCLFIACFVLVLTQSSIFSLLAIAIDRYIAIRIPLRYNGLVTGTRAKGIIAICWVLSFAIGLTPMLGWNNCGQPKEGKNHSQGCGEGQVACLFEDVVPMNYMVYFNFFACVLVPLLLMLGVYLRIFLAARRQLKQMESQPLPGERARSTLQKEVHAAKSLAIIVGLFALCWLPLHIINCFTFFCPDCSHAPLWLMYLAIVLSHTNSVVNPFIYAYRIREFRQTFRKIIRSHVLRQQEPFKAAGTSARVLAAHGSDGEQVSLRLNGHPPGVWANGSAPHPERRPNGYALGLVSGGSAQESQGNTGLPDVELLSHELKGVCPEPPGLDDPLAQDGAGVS

Take `Nc1nc(-c2ccccc2)c2c(n1)-c1cc(Cc3cccnc3)ccc1C2=O` [C, 2-Amino-4-phenyl-8-pyridin-3-ylmethyl-indeno[1,2-d]pyrimidin-5-one]: the pKi in assay [1] was 8.36; in assay [2] it was 9.40.
Consider `Nc1nc(-c2ccccc2)c2c(n1)-c1cc(OCCN3CCOCC3)ccc1C2=O` [A, 2-Amino-8-(2-morpholin-4-yl-ethoxy)-4-phenyl-indeno[1,2-d]pyrimidin-5-one], for which, in assay [1], the pKi was 7.30.
In the case of `CC1CCC(C)N1Cc1ccc2c(c1)-c1nc(N)nc(-c3ccccc3)c1C2=O` (centres unmarked) [B, 2-Amino-8-(2,5-dimethyl-pyrrolidin-1-ylmethyl)-4-phenyl-indeno[1,2-d]pyrimidin-5-one], the values for the pKi in assay [1] and in assay [2] were 7.43 and 7.88, respectively.
